Experimental data published in PubChem BioAssay AID179 (DTP/NCI, 2004).
The source made the active and inactive calls.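 How the source made its calls: active means compounds giving half or more protection of infected cells from virus-caused growth loss, again on retest; inactive means the rest.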 Where a SMILES comes first, the peptide text is derived from it. Bridges are numbered along the chain shown (N, C = ends). Roman numbers before positions name the chains, in order.

Test system: CEM cells HIV-1 protection, formazan growth assay
Test: NCI AIDS Antiviral Assay
Conditions: for IC50: measured here: growth of uninfected CEM cells
Procedure: The ability of compounds to protect human CEM cells from HIV-1 infection is measured as a screen for new compounds capable of inhibiting the HIV virus. Five concentrations of drug were tested on uninfected and infected cells and cell growth was measured using a soluble formazan assay. […] Compounds that provided at least 50% protection were retested. Compounds that provided at least 50% protection on retest were listed as moderately active. Compounds that reproducibly provided 100% protection were listed as confirmed active. […] Note that the inability to provide protection could be due to toxicity.

## O=[N+]([O-])c1ccc(-c2nn3c(C45CC6CC(CC(C6)C4)C5)nnc3s2)c(Cl)c1
  EC50: > 200 µM
  IC50: > 200 µM

## COc1ccc2c(CCNC(=O)/C=C/c3ccccc3)c(C(C)=O)[nH]c2c1[N+](=O)[O-]
  outcome: inactive

## CN(C)CCC(/C=C/c1ccccc1)=N\Nc1ccc(Cl)c(Cl)c1
  outcome: inactive

## Cn1c(N)c(N)c(=O)[nH]c1=O
  EC50: > 200 µM
  IC50: 162 µM

## CC(C)C(NC(=O)C(N)CSSCC(N)C(=O)NC(C(=O)O)C(C)C)C(=O)O (stereo not drawn) (I: H-Cys-Val-OH / II: H-Cys-Val-OH; disulfide I:1-II:1; configuration not given here)
  outcome: inactive

## CC(C)(C)C1C2N1C1(c3ccccc3)OC2(c2ccccc2)c2ccccc21 (configuration not stated)
  EC50: > 10.2 µM
  IC50: > 10.2 µM

## CCOC(=O)c1ccc(-c2cc(C)[nH]n2)[nH]1
  EC50: > 200 µM
  IC50: 77.6 µM

## CCOC(=O)[C@H]1Nc2ccc(Cl)cc2[C@H]2CCC[C@@H]12
  EC50: > 67.6 µM
  IC50: > 67.6 µM

## NC(Cc1c2ccccc2cc2ccccc12)C(=O)O (configuration not stated)
  EC50: > 200 µM
  IC50: 102 µM

## CC(C)(C)OC(=O)NCCCCC(N)C(N)=O (configuration not stated)
  EC50: > 200 µM
  IC50: > 200 µM

## O=S(=O)(Nc1nnc2c3ccccc3ccn12)c1ccc(F)cc1S
  EC50: 214 µM
  IC50: 251 µM

## NC(=O)C(c1ccccc1)N1CCCC1 (configuration not stated)
  EC50: > 200 µM
  IC50: > 200 µM

## COc1ccc(/C(O)=C/c2nc3ccccc3n2C)cc1
  EC50: > 178 µM
  IC50: 74.1 µM

## COC(=O)/C=C/c1ccc2c(c1)CCC2
  EC50: > 200 µM
  IC50: 6.92 µM

## C/C(CC(=O)Nc1cccc(Cl)c1C)=N\NC(=O)c1ccncc1
  EC50: > 275 µM
  IC50: 129 µM

## O=c1ccn(C(CO)OC(CO)CCP(=O)(O)O)c(=O)[nH]1 (configuration not stated)
  EC50: > 200 µM
  IC50: > 200 µM

## CC(=O)c1nc2ccccc2n1C(C)C(=O)c1ccccc1 (configuration not stated)
  EC50: > 200 µM
  IC50: 11.2 µM

## Cc1[nH]c(=O)[nH]c(=O)c1CO
  EC50: > 200 µM
  IC50: 105 µM

## O=C1Sc2ccc(Cl)cc2C(=O)N2CCSC12 (configuration not stated)
  EC50: > 50.1 µM
  IC50: > 50.1 µM

## CCOP(=O)(OCC)/C(C#N)=C/c1ccc(-c2ccc(F)cc2F)o1
  outcome: inactive

## CCOC(=O)c1nc2ccc(C(F)(F)F)cc2nc1Oc1ccc(C(=O)OC)cc1
  EC50: > 200 µM
  IC50: > 200 µM

## Nc1ccn(C2CC(F)C(CO)S2)c(=O)n1 (configuration not stated)
  EC50: > 25.1 µM
  IC50: > 25.1 µM

## COc1cc2c(cc1OC)C(CCl)c1cc(OC)c(OC)cc1C=C2
  EC50: > 100 µM
  IC50: > 100 µM

## S=C(SSSSC(=S)N1CCCCC1)N1CCCCC1
  EC50: > 10.5 µM
  IC50: 2.14 µM

## CC(C)(C)N1C[C@H](C(=O)c2ccccc2)[C@@H]1c1ccccc1
  EC50: > 33.9 µM
  IC50: > 33.9 µM

## COC(=O)c1coc(CC/C(C)=C/c2ccccc2)n1
  EC50: > 200 µM
  IC50: 126 µM

## CC(C)CCN(CCC(C)C)CC(=O)Nc1ccc(S(=O)(=O)c2ccc(NC(=O)CN(CCC(C)C)CCC(C)C)cc2)cc1
  EC50: > 100 µM
  IC50: 1.62 µM

## N#Cc1c(N=C2CCCCC2)c(C(=O)Nc2ccccc2)n2c1CCC2
  EC50: > 100 µM
  IC50: > 100 µM

## O=S(O)Cc1ccccc1CSSSCc1ccccc1CS(=O)O
  EC50: > 200 µM
  IC50: 102 µM

## CCOC(=O)C(=CNc1cccc(NC=C(C(=O)OCC)C(=O)OCC)c1)C(=O)OCC
  EC50: > 200 µM
  IC50: 19.1 µM

## COC(=O)C1=C(O)C(C(=O)OC)[C@@]2(O)[C@@H](C(=O)OC)[C@H](C)C[C@@H]1[C@@H]2C(=O)OC (some centres not stated)
  EC50: > 200 µM
  IC50: 39.8 µM

## COc1cc([C@@H]2c3cc4c(cc3C(N)C3COC(=O)[C@@H]32)OCO4)cc(OC)c1O (some centres not stated)
  outcome: inactive

## O=C1c2ccccc2C(c2ccccc2)(N2CCCCC2)N1c1ccccc1 (configuration not stated)
  EC50: > 17.4 µM
  IC50: > 17.4 µM

## COc1ccc2oc3c(C)cc4c(OC)nnc(OC)c4c3c2c1
  EC50: > 200 µM
  IC50: 12.6 µM

## COc1ccc(C2=NN(C(=O)COc3ccc(Cl)cc3)C(O)(c3ccc(Cl)cc3)C2)cc1 (configuration not stated)
  EC50: > 11 µM
  IC50: > 11 µM

## NC(=O)N/N=C(\CC1OC(=O)c2ccccc21)c1ccco1 (configuration not stated)
  EC50: > 832 µM
  IC50: > 832 µM
